The results in this text go back to patent EP0415303B1, “Pyrido [2,3-b][1,5]benzoxazepin (and thiazepin)-5(6H)-ones and -thiones and their use in the prevention or treatment of HIV infection” (BOEHRINGER INGELHEIM PHARMACEUTICALS INC., priority 1989, dated 1991).

One data set deals with T1, HIV-1 RT (Human immunodeficiency virus type 1 group M subtype B, UniProt P03367).
T1 construct: Reverse transcriptase enzyme from the LAV strain of Human Immunodeficiency Virus (HIV-1) (1) was isolated from the bacterial strain JM109; made in house; host or cells: E. coli JM109, clone pBRTprtl+ in vector pIBI21 (lac promoter, IPTG induction)
The experiment in a line: Reverse Transcriptase (RT) Assay: inhibition of RNA-dependent DNA polymerase activity. Particulars: for RT Inhibition % @ 10 »g/ml: poly r(C)/oligo d(G) template, ³H-dGTP, 60 minutes at room temperature; for inhibition at 1 µM: compound at 1 »M (footnote *), read-out: RT Inhibition % (* % inh. @ 1 »M). It is filed as biochemical. Details: RT Inhibition % @ 10 »g/ml: tested at 10 µg/ml. From the text:
Utilizing the Reverse Transcriptase (RT) Assay described below, compounds can be tested for their ability to inhibit the RNA-dependent DNA polymerase activity of HIV-1 RT. Certain specific compounds described in the Examples which appear below, were so tested.
Among the enzymes for which Human Immunodeficiency Virus (HIV-1) encodes is a reverse transcriptase (1), so-named because it transcribes a DNA copy from an RNA template. This activity can be quantitatively measured in a cell-free enzyme assay, which has been previously described (2), and is based upon the observation that reverse transcriptase is able to use a synthetic template [poly r(C) primed with oligo d(G)] to transcribe a radio-labelled, acid-precipitable DNA strand utilizing ³H-dGTP as a substrate.
Reverse transcriptase enzyme from the LAV strain of Human Immunodeficiency Virus (HIV-1) (1) was isolated from the bacterial strain JM109 (3) expressing the DNA clone pBRTprtl+ (2) which is under the control of the lac promotor in the expression vector pIBI21 (4). An overnight culture grown in 2XYT medium (37°C, 225 rpm) (5) supplemented with 100 »g/ml ampicillin for positive selection is inoculated at a 1:40 dilution into M9 medium supplemented with 10»g/ml thiamine, 0.5% casamino acids, and 50 »g/ml ampicillin (5). The culture is incubated (37°C, 225 rpm) until it reaches an OD540 of 0.3-0.4. At that time the repressor inhibitor IPTG (isopropyl β-D-thiogalactopyranoside) is added to 0.5mM, and the mixture is incubated for 2 additional hours. Bacteria are pelleted, resuspended in a 50mM Tris, 0.6mM EDTA, 0.375M NaCl buffer and digested by the addition of lysozyme (1mg/ml) for 30 minutes on ice. The cells are lysed by the addition of 0.2% NP-40 and brought to 1M NaCl.
After removal of the insoluble debris by centrifugation, the protein is precipitated by the addition of 3 volumes of saturated aqueous ammonium sulfate. The enzyme is pelleted, resuspended in RT buffer (50mM Tris pH 7.5, 1mM EDTA, 5mM DTT, 0.1% NP-40, 0.1M NaCl, and 50% glycerol), and stored at -70°C for further use.
The 2X concentrated stock reaction mixture is aliquoted and stored at -20°C. The mixture is stable and thawed for use in each assay. This enzyme assay has been adapted to a 96 well microtiter plate system, and has been previously described (6). Tris buffer (50 mM, pH 7.4), vehicle (solvent diluted to match the compound dilution), or compounds in vehicle are dispensed into 96-well microtiter plates (10»l/well; 3 wells/ compound). The HIV-1 RT enzyme is thawed, diluted in 50mM Tris pH 7.4 so that fifteen »l of diluted enzyme contain 0.001 Unit (one unit is that amount of enzyme to transform 1 micromole of substrate per minute at 25°C), and fifteen »l are dispensed per well. Twenty »l of 0.12-0.5M EDTA are added to the first three wells of the microtiter plate. EDTA chelates the Mg⁺⁺ present and prevents reverse transcription. This group serves as background polymerization which is subtracted from all other groups. Twenty-five ul of the 2X reaction mixture are added to all wells and the assay is allowed to incubate at room temperature for 60 minutes. The assay is terminated by precipitating the DNA in each well with 50»l of 10% trichloracetic acid (TCA) (10% w/v) in sodium pyrophosphate (1% w/v). The microtiter plate is incubated for 15 minutes at 4°C and the precipitate is fixed onto #30 glass fiber paper (Schleicher & Schuell) using a Skatron semi-automatic harvester. The filters are then washed with additional TCA (5%) containing sodium pyrophosphate (1%), rinsed with aqueous ethanol (70%), dried, and transferred to scintillation vials (6). Each vial receives 2 mls of scintillation cocktail and is counted in a Beckman beta counter.
The calculation for percent inhibition is as follows: [formula]

A short description of data set [1]: MTT Assay for Cellular Cytotoxicity. As to conditions: human; H9 cells, five days incubation, MTT read at 570nm; read-out: Cytotoxicity Assay (EC₅₀). The data set is classed as cell-based. On the procedure:
In order to roughly assess the cytotoxicity of the compounds provided by the invention, several such compounds were tested in the MTT Cellular Cytotoxicity Assay described below. Compounds having a relatively high EC₅₀ are preferred.
The MTT [3-(4,5-dimethylthiazol-2-yl)-2,5 diphenyl tetrazolium bromide) assay is based on cleavage of tetrazolium bromide by metabolically active cells, resulting in a highly quantitative blue color. This assay has been previously described (1) but has been optimized for the purposes of the testing reported herein.
The H9 cell line (2), an established human lymphoma suspension cell line grown in RPMI 1640 supplemented with 10% fetal bovine serum, is used as the target cell line in the assay. Cells (100»l) are plated in microtest plate wells at a concentration of 10⁵ cells per ml in the presence of varying concentrations of inhibitor. The cells are incubated at 37°C in a humidified CO₂ incubator. Five days later, 20»l of MTT (5mg/ml in RPMI 1640, sonicated, 0.2 micron filtered, and stored at 4°C) is added to each well. After 4 hours additional incubation at 37°C, 60»l of Triton-X is added to each well and thoroughly mixed to aid the solubilization of the crystals. Absolute ethanol (5»l) is added to each well and the resulting mixture is incubated for 30 minutes at 60°C and immediately read on a plate reader (Dynatech) at a wavelength of 570nm. […]

Structures are written as SMILES.

For the compound `CCN1C(=O)c2cccnc2Oc2ccccc21` [Example 8, 6-Ethylpyrido[2,3-b][1,5]benzoxazepin-5(6H)-one], the “RT Inhibition % @ 10 »g/ml” value on HIV-1 RT is listed as 77%. On the same count and under the same terms, the same measure for `CN1C(=O)c2cccnc2Oc2ccccc21` [Example 7, 6-Methylpyrido[2,3-b][1,5]benzoxazepin-5(6H)-one]: 71%. Regarding `CCCN1C(=O)c2cc(N)cnc2Oc2cc(C)cc(C)c21` [Example 6, 3-Amino-7,9-dimethyl-6-(n-propyl)pyrido[2,3-b][1,5]benzoxazepin-5(6H)-one], on HIV-1 RT, the inhibition – broadly, the percentage by which the read-out fell short of the control – at 1 µM turned out to be 82%. On to `Cc1ccc2c(c1)Oc1ncc(N)cc1C(=O)N2C` [Example 3, 3-Amino-6,9-dimethylpyrido[2,3-b][1,5]benzoxazepin-5(6H)-one], for which the inhibition at 1 µM on HIV-1 RT was 57%. Further, the CC50 at 120 h in data set [1] is 315 µM. With `Cc1cc(C)c2c(c1)Oc1ncc(N)cc1C(=O)N2C` [Example 4, 3-Amino-6,7,9-trimethylpyrido[2,3-b][1,5]benzoxazepin-5(6H)-one], the inhibition at 1 µM at HIV-1 RT is 92%. Same read-out and setting: the same measure for `Cc1ccc2c(c1)Oc1ncccc1C(=O)N2C` [Example 11, 6,9-Dimethylpyrido[2,3-b][1,5)benzoxazepin-5(6H)-one]: 43%. Regarding `CCC(=O)N1C(=O)c2cccnc2Oc2ccccc21` [Example 10, 6-Propionylpyrido[2,3-b][1,5]benzoxazepin-5(6H)-one], the “RT Inhibition % @ 10 »g/ml” value at HIV-1 RT is 28%.

Regarding `C=CCN1C(=O)c2cccnc2Oc2ccccc21` [Example 9, 6-Allylpyrido[2,3-b][1,5]benzoxazepin-5(6H)-one], the “RT Inhibition % @ 10 »g/ml” value on HIV-1 RT is on record as 89%. As to `Cc1ccc2c(c1)Oc1ncc(O)cc1C(=O)N2C` [Example 13, 3-Hydroxy-6,9-dimethylpyrido[2,3-b][1,5]benzoxazepin-5(6H)-one], the inhibition at 2.5 µM on HIV-1 RT (compound at 2.5 »M (footnote †), read-out: RT Inhibition % († % inh. @ 2.5 »M)) was found to be 41%. For the compound `CN1C(=O)c2cccnc2Sc2ccccc21` [Example 15, 6-Methylpyrido[2,3-b][1,5]benzothiazepin-5(6H)-one], the “RT Inhibition % @ 10 »g/ml” value at HIV-1 RT is given as 85%.

With `CCN1C(=O)c2cccnc2Oc2cccc(N)c21` [Example 14, 7-Amino-6-ethylpyrido[2,3-b][1,5]benzoxazepin-5(6H)-one], the inhibition at 1 µM at HIV-1 RT amounted to 33%. In the case of `CCCN1C(=O)c2cccnc2Oc2ccccc21` [Example 1, 6-(n-Propyl)pyrido[2,3-b][1,5]benzoxazepin-5(6H)-one], the “RT Inhibition % @ 10 »g/ml” value at HIV-1 RT is on record as 80%. For `CCN1C(=O)c2cccnc2Oc2cc(C)ccc21` [Example 12, 6-Ethyl-9-methylpyrido[2,3-b][1,5]benzoxazepin-5(6H)-one], the inhibition at 1 µM at HIV-1 RT came to 67%. For `CCN1C(=O)c2cccnc2Sc2ccccc21` [Example 2, 6-Ethylpyrido[2,3-b][1,5]benzothiazepin-5(6H)-one], at HIV-1 RT, the “RT Inhibition % @ 10 »g/ml” value is 89%. `CCN1C(=O)c2cc(N)cnc2Oc2cc(C)cc(C)c21` [Example 5, 3-Amino-7,9-dimethyl-6-ethylpyrido[2,3-b][1,5]benzoxazepin-5(6H)-one]: the inhibition at 1 µM at HIV-1 RT amounted to 93%.
